Measurements published in ChEMBL document CHEMBL1201862, “PubChem BioAssay data set” (2004).
Activity calls are given as the source filed them.

Key:
[1] = target: T1, Kappa-type opioid receptor (Homo sapiens, UniProt P41145); test: SAR analysis of small molecule antagonists of the kappa opioid receptor via a luminescent beta-arrestin assay - Set 4. [Related pubchem assays (depositor defined):AID1777, AID1778, AID1785, AID1786, AID1966, AID2133, AID2136, AID2285]; type: functional
[2] = target: T1, Kappa-type opioid receptor; test: SAR analysis of small molecule antagonists of the kappa opioid receptor via a luminescent beta-arrestin assay - Set 5. [Related pubchem assays (depositor defined):AID1778, AID1785]; type: functional
[3] = target: T2, Runt-related transcription factor 1/Core-binding factor subunit beta (Homo sapiens, UniProt Q01196+Q13951); test: inhibitors of RUNX1 Runt–CBFb-SMMHC binding, primary screen, biochemical, FRET, Cerulean-Runt, Venus-CBFb-SMMHC, uHTS (AID 1434); type: protein assay;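 also: partner is the CBFb-SMMHC leukemia fusion protein rather than wild-type CBFb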
[4] = target: T2, Runt-related transcription factor 1/Core-binding factor subunit beta; test: inhibitors of RUNX1 Runt–CBFb-SMMHC binding, biochemical, TR-FRET (AID 1438); type: protein assay
[5] = target: T3, G-protein coupled receptor 35 (Homo sapiens, UniProt Q9HC97); test: SAR analysis of Agonists of the GPR35 Receptor using an Image-Based Assay - Set 4. [Related pubchem assays (depositor defined):AID2013, AID2026]; type: functional
[6] = target: T4, Cannabinoid receptor 1 (Homo sapiens, UniProt P21554); test: SAR analysis of agonists of the Cannabinoid Receptor 1 using an Image-Based Assay - Set 4. [Related pubchem assays (depositor defined):AID2013, AID2026]; type: functional
[7] = target: T3, G-protein coupled receptor 35; test: SAR analysis of Antagonists of the GPR35 Receptor using an Image-Based Assay - Set 6. [Related pubchem assays (depositor defined):AID2013, AID2026]; type: functional
[8] = target: T4, Cannabinoid receptor 1; test: SAR analysis of antagonists of the Cannabinoid Receptor 1 using an Image-Based Assay - Set 4. [Related pubchem assays (depositor defined):AID2013, AID2026]; type: functional
[9] = target: T5, G-protein coupled receptor 55 (Homo sapiens, UniProt Q9Y2T6); test: SAR Analysis of Selective Antagonists of GPR55 using an Image-Based Assay - Set 4. [Related pubchem assays (depositor defined):AID2013, AID2026]; type: functional
[10] = target: T6, Cannabinoid receptor 2 (Homo sapiens, UniProt P34972); test: SAR analysis of antagonists of the Cannabinoid Receptor 2 using an Image-Based Assay - Set 3. [Related pubchem assays (depositor defined):AID2013, AID2026]; type: functional
[11] = target: T6, Cannabinoid receptor 2; test: SAR analysis of agonists of the Cannabinoid Receptor 2 using an Image-Based Assay - Set 3. [Related pubchem assays (depositor defined):AID2013, AID2026]; type: functional
[12] = target: T7, Tyrosine-protein phosphatase non-receptor type 22 (Homo sapiens, UniProt Q9Y2R2); test: SAR LYP1 Fluorescent Assay using pCAP substrate for In Vitro dose response studies - Set 2. [Related pubchem assays (depositor defined):AID1779, AID1784, AID2135, AID449727]; type: functional
T7 sequence (Q9Y2R2 whole entry): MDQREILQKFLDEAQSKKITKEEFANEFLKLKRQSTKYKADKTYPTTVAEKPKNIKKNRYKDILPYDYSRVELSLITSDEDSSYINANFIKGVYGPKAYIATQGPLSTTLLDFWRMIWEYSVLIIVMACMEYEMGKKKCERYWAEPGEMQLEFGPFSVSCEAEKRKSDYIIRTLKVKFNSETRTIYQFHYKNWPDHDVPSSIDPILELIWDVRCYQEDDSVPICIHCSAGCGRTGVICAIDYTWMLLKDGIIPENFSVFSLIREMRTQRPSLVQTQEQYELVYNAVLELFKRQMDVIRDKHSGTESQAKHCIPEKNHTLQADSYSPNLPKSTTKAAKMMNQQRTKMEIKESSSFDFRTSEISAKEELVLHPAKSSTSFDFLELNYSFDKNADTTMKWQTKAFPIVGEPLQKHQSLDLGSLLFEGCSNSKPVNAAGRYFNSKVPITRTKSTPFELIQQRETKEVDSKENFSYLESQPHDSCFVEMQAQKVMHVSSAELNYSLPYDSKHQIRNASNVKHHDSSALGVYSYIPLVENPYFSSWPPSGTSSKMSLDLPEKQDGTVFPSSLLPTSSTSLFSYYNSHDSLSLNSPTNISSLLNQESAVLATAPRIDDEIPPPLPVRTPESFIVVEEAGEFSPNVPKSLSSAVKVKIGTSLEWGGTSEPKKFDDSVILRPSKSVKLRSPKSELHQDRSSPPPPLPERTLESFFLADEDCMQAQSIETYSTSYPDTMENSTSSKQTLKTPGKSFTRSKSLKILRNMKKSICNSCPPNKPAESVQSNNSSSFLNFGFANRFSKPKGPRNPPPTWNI

[13] = target: Tyrosine-protein phosphatase non-receptor type 12 (Homo sapiens, UniProt Q05209); test: SAR Selectivity Analysis of small molecule inhibitors of PEST using pCAP in a fluorescence assay. [Related pubchem assays (depositor defined):AID1779, AID1784, AID2135]; type: functional
[14] = target: T7, Tyrosine-protein phosphatase non-receptor type 22; test: SAR LYP1 Fluorescent Assay using OMFP substrate for In Vitro dose response studies - Set 3. [Related pubchem assays (depositor defined):AID1779, AID1784, AID2140, AID2686]; type: functional
[15] = target: T8, Tyrosine-protein phosphatase non-receptor type 7 (Homo sapiens, UniProt P35236); test: HePTP (PTPN7) phosphatase inhibitor potency, SAR follow-up, biochemical, set 2 (AID 449736); type: functional
T8 sequence (P35236 whole entry): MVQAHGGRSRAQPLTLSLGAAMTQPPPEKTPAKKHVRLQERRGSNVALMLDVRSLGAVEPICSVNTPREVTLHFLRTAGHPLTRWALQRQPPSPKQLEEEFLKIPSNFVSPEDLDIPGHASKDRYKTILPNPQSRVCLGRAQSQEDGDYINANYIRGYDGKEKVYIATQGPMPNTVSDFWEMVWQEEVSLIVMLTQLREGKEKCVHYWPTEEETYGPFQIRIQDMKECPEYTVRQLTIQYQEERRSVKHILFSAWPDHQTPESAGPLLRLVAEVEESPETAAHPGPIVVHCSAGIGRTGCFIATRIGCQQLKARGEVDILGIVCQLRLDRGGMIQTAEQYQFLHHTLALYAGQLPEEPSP

[16] = target: T7, Tyrosine-protein phosphatase non-receptor type 22; test: LYP (PTPN22) phosphatase inhibitor potency, SAR follow-up, biochemical, pCAP fluorogenic substrate, fluorescence, set 3 (AID 449727); type: functional
[17] = target: T7, Tyrosine-protein phosphatase non-receptor type 22; test: PubChem AID 2135
[18] = target: T7, Tyrosine-protein phosphatase non-receptor type 22; test: PubChem AID 2140
[19] = target: T7, Tyrosine-protein phosphatase non-receptor type 22; test: SAR LYP1 Fluorescent Assay using OMFP substrate for In Vitro dose response studies - Set 2. [Related pubchem assays (depositor defined):AID1779, AID1784, AID2140, AID449726, AID488869]; type: functional
[20] = target: Ion channel NompC (Danio rerio, UniProt Q7T1G6); test: Dose response cell-based high-throughput screening assay for agonists of the transient receptor potential channel N1 (TRPN1). [Related pubchem assays (depositor defined):AID1424, AID1448]; type: functional
[21] = target: Mucolipin-3 (Homo sapiens, UniProt Q8TDD5); test: Fluorescence counterscreen assay for […] agonists: dose response cell-based high-throughput screening assay to identify agonists of the transient receptor potential channel ML3 (TRPML3). [Related pubchem assays: 1424, 1448 ]; type: functional
[22] = target: DNA dC->dU-editing enzyme APOBEC-3A (Homo sapiens, UniProt P31941); test: Dose Response confirmation of small molecule APOBEC3A DNA Deaminase Inhibitors via a fluorescence-based single-stranded DNA deaminase assay. [Related pubchem assays (depositor defined):AID493011, AID493024]; type: functional
[23] = target: DNA dC->dU-editing enzyme APOBEC-3G (Homo sapiens, UniProt Q9HC16); type: functional;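 also: Dose-response counterscreen measuring inhibition of APOBEC3G DNA deaminase activity, run while confirming APOBEC3A inhibitors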
[24] = target: T9, Carboxy-terminal domain RNA polymerase II polypeptide A small phosphatase 1 (Homo sapiens, UniProt Q9GZU7); test: inhibitors of CTDSP1, concentration-response testing, biochemical assay, absorbance-based, actives from ultra-high-throughput screening (AID 540297); type: functional
T9 sequence (Q9GZU7 whole entry): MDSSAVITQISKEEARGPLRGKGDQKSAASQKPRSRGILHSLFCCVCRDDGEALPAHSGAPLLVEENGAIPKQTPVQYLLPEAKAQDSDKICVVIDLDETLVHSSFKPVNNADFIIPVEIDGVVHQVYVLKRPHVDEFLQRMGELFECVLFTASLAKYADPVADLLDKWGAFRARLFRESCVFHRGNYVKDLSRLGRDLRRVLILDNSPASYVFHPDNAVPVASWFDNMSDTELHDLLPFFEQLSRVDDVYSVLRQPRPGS

[25] = target: Tyrosine-protein phosphatase non-receptor type 11 (Homo sapiens, UniProt Q06124); test: SHP2 phosphatase inhibition, dose response, selectivity assay for STEP inhibitor project, biochemical (AID 602367); type: functional; settings: read-out: IC50_Mean
[26] = target: Tyrosine-protein phosphatase non-receptor type 5 (Homo sapiens, UniProt P54829); test: STEP phosphatase inhibitors, confirmation, biochemical, fluorescence intensity, uHTS hits (AID 602372); type: functional; settings: read-out: IC50_Mean
[27] = target: Dual specificity protein phosphatase 3 (Homo sapiens, UniProt P51452); test: VHR phosphatase inhibition, dose response, selectivity assay for STEP inhibitor project, biochemical (AID 602374); type: functional; settings: read-out: IC50_Mean
[28] = target: Intestinal-type alkaline phosphatase (Homo sapiens, UniProt P09923); test: human intestinal alkaline phosphatase activators, dose response, biochemical, luminescence, uHTS hits (AID 463120); type: functional
[29] = target: T6, Cannabinoid receptor 2; test: SAR analysis of antagonists of the Cannabinoid Receptor 2 using an Image-Based Assay - Set 2. [Related pubchem assays (depositor defined):AID1961, AID1965]; type: functional
[30] = target: T5, G-protein coupled receptor 55; test: SAR analysis of selective Agonists of GPR55 using an Image-Based Assay - Set 2. [Related pubchem assays (depositor defined):AID1961, AID1965]; type: functional
[31] = target: T6, Cannabinoid receptor 2; test: SAR analysis of agonists of the Cannabinoid Receptor 2 using an Image-Based Assay - Set 2. [Related pubchem assays (depositor defined):AID1961, AID1965]; type: functional
[32] = target: T3, G-protein coupled receptor 35; test: SAR analysis of Agonists of the GPR35 Receptor using an Image-Based Assay - Set 3. [Related pubchem assays (depositor defined):AID1961, AID1965]; type: functional
[33] = target: T4, Cannabinoid receptor 1; test: SAR analysis of antagonists of the Cannabinoid Receptor 1 using an Image-Based Assay - Set 3. [Related pubchem assays (depositor defined):AID1961, AID1965]; type: functional
[34] = target: T4, Cannabinoid receptor 1; test: SAR analysis of agonists of the Cannabinoid Receptor 1 using an Image-Based Assay - Set 3. [Related pubchem assays (depositor defined):AID1961, AID1965]; type: functional
[35] = target: T3, G-protein coupled receptor 35; test: SAR analysis of Antagonists of the GPR35 Receptor using an Image-Based Assay - Set 4. [Related pubchem assays (depositor defined):[…]]; type: functional

T6 sequence (P34972 whole entry): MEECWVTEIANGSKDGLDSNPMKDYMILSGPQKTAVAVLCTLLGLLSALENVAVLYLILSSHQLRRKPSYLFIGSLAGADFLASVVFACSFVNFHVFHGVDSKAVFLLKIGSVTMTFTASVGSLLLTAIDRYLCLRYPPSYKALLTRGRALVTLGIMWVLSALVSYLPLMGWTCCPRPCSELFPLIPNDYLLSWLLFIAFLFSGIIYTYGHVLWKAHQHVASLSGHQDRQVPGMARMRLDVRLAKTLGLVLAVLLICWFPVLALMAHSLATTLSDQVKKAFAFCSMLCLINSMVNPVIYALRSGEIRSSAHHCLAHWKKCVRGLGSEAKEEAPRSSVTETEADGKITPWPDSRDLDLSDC
T4 sequence (P21554 whole entry): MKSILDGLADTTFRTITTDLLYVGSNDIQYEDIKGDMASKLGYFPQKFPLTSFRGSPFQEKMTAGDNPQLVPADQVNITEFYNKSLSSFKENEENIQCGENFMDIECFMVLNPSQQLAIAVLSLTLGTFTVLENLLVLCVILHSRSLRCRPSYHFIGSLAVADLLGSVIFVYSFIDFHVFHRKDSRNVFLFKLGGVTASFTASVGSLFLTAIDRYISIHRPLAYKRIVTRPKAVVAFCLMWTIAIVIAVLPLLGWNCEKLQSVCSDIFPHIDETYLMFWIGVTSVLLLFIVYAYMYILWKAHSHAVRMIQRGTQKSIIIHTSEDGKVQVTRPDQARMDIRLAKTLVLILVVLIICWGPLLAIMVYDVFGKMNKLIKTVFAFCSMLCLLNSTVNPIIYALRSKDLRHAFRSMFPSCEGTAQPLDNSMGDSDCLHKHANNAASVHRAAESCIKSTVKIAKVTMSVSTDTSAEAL
T3 sequence (Q9HC97 whole entry): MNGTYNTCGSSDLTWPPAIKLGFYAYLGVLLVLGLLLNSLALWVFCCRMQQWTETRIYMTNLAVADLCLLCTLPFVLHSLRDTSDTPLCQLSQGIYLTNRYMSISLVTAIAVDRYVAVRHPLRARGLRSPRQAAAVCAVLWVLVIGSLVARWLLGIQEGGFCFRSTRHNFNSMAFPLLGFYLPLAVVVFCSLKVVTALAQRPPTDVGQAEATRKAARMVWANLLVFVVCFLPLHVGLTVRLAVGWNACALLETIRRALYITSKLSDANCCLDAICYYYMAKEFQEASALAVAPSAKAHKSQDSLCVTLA
T5 sequence (Q9Y2T6 whole entry): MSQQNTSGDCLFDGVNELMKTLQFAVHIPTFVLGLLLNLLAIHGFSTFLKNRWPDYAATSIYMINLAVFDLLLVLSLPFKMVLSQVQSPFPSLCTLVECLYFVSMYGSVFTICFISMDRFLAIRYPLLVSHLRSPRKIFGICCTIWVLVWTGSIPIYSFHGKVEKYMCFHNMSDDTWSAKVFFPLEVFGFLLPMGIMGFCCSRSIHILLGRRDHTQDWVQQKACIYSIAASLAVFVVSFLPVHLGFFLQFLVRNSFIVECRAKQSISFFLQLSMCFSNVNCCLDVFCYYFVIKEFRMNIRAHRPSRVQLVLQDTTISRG
T1 sequence (P41145 whole entry): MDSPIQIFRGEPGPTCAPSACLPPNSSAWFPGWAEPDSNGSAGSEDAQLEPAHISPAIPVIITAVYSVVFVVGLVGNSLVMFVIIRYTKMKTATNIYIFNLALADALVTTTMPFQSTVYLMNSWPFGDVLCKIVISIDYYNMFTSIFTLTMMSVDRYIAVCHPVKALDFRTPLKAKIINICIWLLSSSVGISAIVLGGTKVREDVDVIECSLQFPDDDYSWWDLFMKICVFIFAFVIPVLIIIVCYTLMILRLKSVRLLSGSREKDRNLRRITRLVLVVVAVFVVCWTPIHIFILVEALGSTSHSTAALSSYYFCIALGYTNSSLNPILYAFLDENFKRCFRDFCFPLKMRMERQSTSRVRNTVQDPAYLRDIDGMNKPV
T2 sequence (Q01196 whole entry, the tested form may be a part): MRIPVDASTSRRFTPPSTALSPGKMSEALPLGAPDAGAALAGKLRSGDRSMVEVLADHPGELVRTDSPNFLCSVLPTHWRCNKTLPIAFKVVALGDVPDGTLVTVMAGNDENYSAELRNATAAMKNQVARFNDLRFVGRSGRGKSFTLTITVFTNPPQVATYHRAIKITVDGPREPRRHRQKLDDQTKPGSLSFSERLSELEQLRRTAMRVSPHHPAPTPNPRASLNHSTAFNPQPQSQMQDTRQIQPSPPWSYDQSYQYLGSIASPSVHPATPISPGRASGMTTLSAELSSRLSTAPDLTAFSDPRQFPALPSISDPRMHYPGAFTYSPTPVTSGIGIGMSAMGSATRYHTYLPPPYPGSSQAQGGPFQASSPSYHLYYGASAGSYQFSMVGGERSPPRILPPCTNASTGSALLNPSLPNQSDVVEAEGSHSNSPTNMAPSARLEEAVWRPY
T2 sequence (Q13951 whole entry, the tested form may be a part): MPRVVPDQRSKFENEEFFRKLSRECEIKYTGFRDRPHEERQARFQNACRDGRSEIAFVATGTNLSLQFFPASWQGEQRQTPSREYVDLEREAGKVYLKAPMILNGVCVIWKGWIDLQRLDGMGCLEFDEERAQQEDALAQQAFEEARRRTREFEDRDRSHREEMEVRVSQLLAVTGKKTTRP
Chain of Tyrosine-protein phosphatase non-receptor type 5 (P54829 whole entry): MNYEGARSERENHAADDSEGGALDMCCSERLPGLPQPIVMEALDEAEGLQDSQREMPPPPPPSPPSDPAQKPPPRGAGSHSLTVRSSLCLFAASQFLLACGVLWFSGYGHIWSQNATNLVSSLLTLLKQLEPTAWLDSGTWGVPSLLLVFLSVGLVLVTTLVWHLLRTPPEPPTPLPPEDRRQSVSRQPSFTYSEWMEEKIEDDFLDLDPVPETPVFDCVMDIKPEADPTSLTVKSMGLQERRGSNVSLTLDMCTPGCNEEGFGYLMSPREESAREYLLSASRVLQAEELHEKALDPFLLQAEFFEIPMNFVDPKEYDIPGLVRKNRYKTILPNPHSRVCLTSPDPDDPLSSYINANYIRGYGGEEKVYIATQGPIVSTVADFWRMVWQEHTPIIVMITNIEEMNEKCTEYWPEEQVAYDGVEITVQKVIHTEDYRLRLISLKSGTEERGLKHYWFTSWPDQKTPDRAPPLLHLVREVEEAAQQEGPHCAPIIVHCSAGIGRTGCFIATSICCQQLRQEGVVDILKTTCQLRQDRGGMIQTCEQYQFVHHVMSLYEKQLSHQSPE
Chain of Dual specificity protein phosphatase 3 (P51452 whole entry): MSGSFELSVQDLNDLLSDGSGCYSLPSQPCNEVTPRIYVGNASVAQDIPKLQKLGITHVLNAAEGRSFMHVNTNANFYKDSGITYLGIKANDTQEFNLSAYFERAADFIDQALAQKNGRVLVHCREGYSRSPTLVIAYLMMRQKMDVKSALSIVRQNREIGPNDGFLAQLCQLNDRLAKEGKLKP
Chain of Ion channel NompC (Q7T1G6 whole entry): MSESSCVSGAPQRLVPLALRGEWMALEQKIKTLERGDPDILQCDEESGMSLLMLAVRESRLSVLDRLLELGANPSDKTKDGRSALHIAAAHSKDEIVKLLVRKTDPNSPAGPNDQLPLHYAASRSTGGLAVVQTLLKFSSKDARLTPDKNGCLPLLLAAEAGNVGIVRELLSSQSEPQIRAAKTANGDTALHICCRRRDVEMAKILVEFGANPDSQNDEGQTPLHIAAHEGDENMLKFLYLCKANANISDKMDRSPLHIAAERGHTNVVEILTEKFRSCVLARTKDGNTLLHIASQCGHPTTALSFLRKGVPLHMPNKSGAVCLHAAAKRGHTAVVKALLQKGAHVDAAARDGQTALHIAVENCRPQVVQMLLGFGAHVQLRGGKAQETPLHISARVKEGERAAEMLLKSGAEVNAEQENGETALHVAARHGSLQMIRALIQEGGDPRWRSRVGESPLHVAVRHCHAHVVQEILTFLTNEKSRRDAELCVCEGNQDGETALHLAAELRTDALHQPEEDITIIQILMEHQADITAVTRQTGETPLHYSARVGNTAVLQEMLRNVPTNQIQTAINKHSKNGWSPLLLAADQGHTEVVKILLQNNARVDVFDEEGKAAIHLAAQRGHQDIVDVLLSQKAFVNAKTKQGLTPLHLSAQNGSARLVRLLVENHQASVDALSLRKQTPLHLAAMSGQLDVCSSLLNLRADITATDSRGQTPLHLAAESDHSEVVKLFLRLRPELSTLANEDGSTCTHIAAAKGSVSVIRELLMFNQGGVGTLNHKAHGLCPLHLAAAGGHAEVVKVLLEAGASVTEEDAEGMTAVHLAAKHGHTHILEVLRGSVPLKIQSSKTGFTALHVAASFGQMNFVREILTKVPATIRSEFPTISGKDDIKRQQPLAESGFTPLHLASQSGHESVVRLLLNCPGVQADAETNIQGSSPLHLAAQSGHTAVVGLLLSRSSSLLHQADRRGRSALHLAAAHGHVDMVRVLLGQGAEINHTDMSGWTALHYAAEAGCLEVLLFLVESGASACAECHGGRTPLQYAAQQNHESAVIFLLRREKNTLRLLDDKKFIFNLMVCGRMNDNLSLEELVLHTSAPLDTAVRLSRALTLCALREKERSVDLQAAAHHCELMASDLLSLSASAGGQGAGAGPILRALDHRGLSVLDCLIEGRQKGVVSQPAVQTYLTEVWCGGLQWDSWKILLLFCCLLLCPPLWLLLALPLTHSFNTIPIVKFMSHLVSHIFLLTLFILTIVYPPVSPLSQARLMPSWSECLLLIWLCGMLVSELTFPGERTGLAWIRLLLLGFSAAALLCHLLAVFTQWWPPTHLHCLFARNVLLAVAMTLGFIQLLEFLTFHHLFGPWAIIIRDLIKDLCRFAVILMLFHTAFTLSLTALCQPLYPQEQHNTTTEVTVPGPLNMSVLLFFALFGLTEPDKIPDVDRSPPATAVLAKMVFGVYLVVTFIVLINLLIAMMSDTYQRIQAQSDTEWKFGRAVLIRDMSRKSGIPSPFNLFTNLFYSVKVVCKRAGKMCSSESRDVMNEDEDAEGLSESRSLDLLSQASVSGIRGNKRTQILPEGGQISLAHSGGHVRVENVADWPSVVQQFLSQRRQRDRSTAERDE

SMILES: Cc1ccccc1S(=O)(=O)NCc1ccc(C(=O)NCCN(Cc2ccccc2)C(C)C)cc1
- IC50 [1]: 2.49 µM (active)
- IC50 [2]: 2.34 µM (active)

SMILES: CC(C)C(=O)N(c1cc2sc(=O)oc2c2ccccc12)S(=O)(=O)c1cccs1
- IC50 [3]: > 100 µM (inactive)
- IC50 [4]: > 100 µM (inactive)

SMILES: CCNC(=O)c1cc2c(=O)n3ccccc3nc2n(C2CCCC2)c1=N
- EC50 [5]: > 32 µM (inactive)
- EC50 [6]: > 32 µM (inactive)
- IC50 [7]: > 32 µM (inactive)
- IC50 [8]: > 32 µM (inactive)
- IC50 [9]: 29.7 µM (inactive)
- IC50 [10]: > 32 µM (inactive)
- EC50 [11]: 3.01 µM (active)

SMILES: N#C/C(=C/c1ccc(OCc2ccc(C(=O)O)cc2)cc1)c1cccc(F)c1
- IC50 [12]: 86.7 µM (active)
- IC50 [13]: 21 µM (active)
- IC50 [14]: 82.9 µM (active)
- IC50 [15]: 3.65 µM (active)
- IC50 [16]: > 100 µM (inactive)
- IC50 [17]: > 100 µM (inactive)
- IC50 [18]: > 100 µM (inactive)
- IC50 [19]: 65.5 µM (active)

SMILES: CCN1CCN(CCNC(=O)c2cn(Cc3ccccc3F)nn2)CC1
- EC50 [20]: > 29.9 µM (inactive)
- EC50 [21]: > 29.9 µM (not active)

SMILES: COc1cccc(N2[C@@H](CC(=O)O)c3ccc(/C=C/C(=O)O)cc3S2(=O)=O)c1
- IC50 [22]: 12.2 µM (active)
- IC50 [23]: 41.2 µM (active)
- IC50 [24]: 2.88 µM (active)
- IC50 [25]: 0.933 µM (active)
- IC50 [26]: 52.1 µM (inactive)
- IC50 [27]: 2.49 µM (active)

SMILES: Cc1cc(C)c2nc(SCC(=O)NNC(=O)c3ccco3)c(C)cc2c1
- EC50 [28]: 12.7 µM (active)

SMILES: COc1ccc(S(=O)(=O)N2CCOCC2)cc1NC(=O)c1ccc(OC(F)F)cc1
- IC50 [29]: > 32 µM (inactive)
- EC50 [30]: > 32 µM (inactive)
- EC50 [31]: > 32 µM (inactive)
- EC50 [32]: > 32 µM (inactive)
- IC50 [33]: > 32 µM (inactive)
- EC50 [34]: > 32 µM (inactive)
- IC50 [35]: > 32 µM (inactive)
